Values joined by “and” are separate entries in the source; they are usually repeats but may differ in a detail not shown here. Equal entries are not always repeated. Toxic doses and inconclusive results are not listed. Rule as the data show it: active = T/C of 150% or more; inactive = T/C below 125%.
Tested on: L1210 leukemia ip in BDF1 mice, survival T/C
Assay: NCI In Vivo Anticancer Drug Screen. Data for tumor model L1210 Leukemia (intraperitoneal) in B6D2F1 (BDF1) mice
Settings: endpoint: mean survival time, higher = longer survival
Outline: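 Tumor cells were implanted, animals were treated, and survival was followed. The result divides the treated measurement by the vehicle-control measurement.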

[1] = dose: 100.0 mg/kg/injection, schedule: Q04DX003 (ip), vehicle: saline with Tween-80
[2] = dose: 200.0 mg/kg/injection, schedule: Q04DX003 (ip), vehicle: saline with Tween-80
[3] = dose: 400.0 mg/kg/injection, schedule: Q04DX003 (ip), vehicle: saline with Tween-80
[4] = dose: 12.5 mg/kg/injection, schedule: Q01DX009 (ip), vehicle: Klucel (hydroxypropylcellulose) (HPC)
[5] = dose: 25.0 mg/kg/injection, schedule: Q01DX009 (ip), vehicle: Klucel (hydroxypropylcellulose) (HPC)
[6] = dose: 100.0 mg/kg/injection, schedule: Q01DX009 (ip), vehicle: Klucel (hydroxypropylcellulose) (HPC)
[7] = dose: 100.0 mg/kg/injection, schedule: Q04DX003 (ip), vehicle: Klucel (hydroxypropylcellulose) (HPC)
[8] = dose: 200.0 mg/kg/injection, schedule: Q04DX003 (ip), vehicle: Klucel (hydroxypropylcellulose) (HPC)
[9] = dose: 100.0 mg/kg/injection, schedule: Q01DX001 (ip), vehicle: carboxymethylcellulose (CMC)
[10] = dose: 200.0 mg/kg/injection, schedule: Q01DX001 (ip), vehicle: carboxymethylcellulose (CMC)
[11] = dose: 400.0 mg/kg/injection, schedule: Q01DX001 (ip), vehicle: carboxymethylcellulose (CMC)
[12] = dose: 100.0 mg/kg/injection, schedule: Q04DX003 (ip), vehicle: saline
[13] = dose: 200.0 mg/kg/injection, schedule: Q04DX003 (ip), vehicle: saline

Measured: T/C

O=[N+]([O-])C(Cl)(CN1CCOCC1)CN1CCOCC1
inactive: dose: 11.1 mg/kg/injection, schedule: Q01DX Z (ip), vehicle: saline 113 % of control | dose: 16.6 mg/kg/injection, schedule: Q01DX Z (ip), vehicle: saline 91 % of control | dose: 25.0 mg/kg/injection, schedule: Q01DX Z (ip), vehicle: saline 95 % of control

CCN(C(=O)Nc1ccc(Cl)cc1)c1ccccc1
inactive: [1] 96 % of control | [2] 95 % of control | [3] 86 % of control

NC(=S)N/N=C1\COC(C(F)(F)F)(C(F)(F)F)C1
inactive: [4] 100 % of control | [5] 97 % of control | dose: 50.0 mg/kg/injection, schedule: Q01DX009 (ip), vehicle: Klucel (hydroxypropylcellulose) (HPC) 96 % of control | [6] 97 % of control and 100 % of control | [7] 103 % of control | [8] 105 % of control

Cc1cc(N(CCOS(C)(=O)=O)CCOS(C)(=O)=O)ccc1C=Nc1cccc(Br)c1
inactive: dose: 20.0 mg/kg/injection, schedule: Q04DX003 (ip), vehicle: Klucel (hydroxypropylcellulose) (HPC) 110 % of control | dose: 40.0 mg/kg/injection, schedule: Q04DX003 (ip), vehicle: Klucel (hydroxypropylcellulose) (HPC) 121 % of control | dose: 80.0 mg/kg/injection, schedule: Q04DX003 (ip), vehicle: Klucel (hydroxypropylcellulose) (HPC) 98 % of control | [7] 120 % of control

O=C(CCl)N(O)c1ccccc1OCc1ccccc1
inactive: dose: 100.0 mg/kg/injection, schedule: Q04DX003 (ip), vehicle: carboxymethylcellulose (CMC) 91 % of control | dose: 200.0 mg/kg/injection, schedule: Q04DX003 (ip), vehicle: carboxymethylcellulose (CMC) 102 % of control

CCCCCCCCCCCCCCCCCC(CC)c1ccccc1 (configuration not stated)
inactive: dose: 100.0 mg/kg/injection, schedule: Q01DX001 (ip), vehicle: saline with Tween-80 104 % of control | dose: 200.0 mg/kg/injection, schedule: Q01DX001 (ip), vehicle: saline with Tween-80 94 % of control | dose: 400.0 mg/kg/injection, schedule: Q01DX001 (ip), vehicle: saline with Tween-80 94 % of control

OC/C(=C\c1ccccc1)c1ccccc1
inactive: [1] 92 % of control | [2] 94 % of control | [3] 92 % of control

NNC(=O)NO
inactive: dose: 33.0 mg/kg/injection, schedule: Q01DX009 (ip), vehicle: saline 114 % of control | dose: 75.0 mg/kg/injection, schedule: Q01DX001 (ip), vehicle: saline 101 % of control | dose: 150.0 mg/kg/injection, schedule: Q01DX001 (ip), vehicle: saline 103 % of control

CS(=O)(=O)Oc1cccc(C(F)(F)F)c1
inactive: [9] 107 % of control | [10] 95 % of control | [11] 98 % of control

C=CCNC(=O)Oc1cccc(NC(=O)OC)c1
inactive: [1] 107 % of control | [2] 108 % of control | [3] 105 % of control

O=S(c1ccccc1)c1c(Cl)c(Cl)nc(Cl)c1Cl (configuration not stated)
inactive: dose: 6.25 mg/kg/injection, schedule: Q01DX009 (ip), vehicle: Klucel (hydroxypropylcellulose) (HPC) 104 % of control | [4] 106 % of control | [5] 104 % of control | [7] 105 % of control | [8] 90 % of control

COC(=O)c1nc(C(=O)OC)c(C(=O)OC)nc1C(=O)OC
inactive: [1] 88 % of control | [2] 93 % of control | [3] 102 % of control

O=C(O)C1CC/C=C\CCC1 (configuration not stated)
inactive: dose: 100.0 mg/kg/injection, schedule: Q01DX009 (sc), vehicle: olive oil, sesame oil, peanut oil 99 % of control | dose: 100.0 mg/kg/injection, schedule: Q04DX003 (sc), vehicle: olive oil, sesame oil, peanut oil 109 % of control | dose: 200.0 mg/kg/injection, schedule: Q01DX009 (sc), vehicle: olive oil, sesame oil, peanut oil 89 % of control | dose: 200.0 mg/kg/injection, schedule: Q04DX003 (sc), vehicle: olive oil, sesame oil, peanut oil 106 % of control | dose: 400.0 mg/kg/injection, schedule: Q01DX009 (sc), vehicle: olive oil, sesame oil, peanut oil 88 % of control | dose: 400.0 mg/kg/injection, schedule: Q04DX003 (sc), vehicle: olive oil, sesame oil, peanut oil 97 % of control

O=C([O][Bi]([c]1ccccc1)[c]1ccccc1)C(F)(F)F
inactive: dose: 100.0 mg/kg/injection, schedule: Q04DX002 (ip), vehicle: saline with Tween-80 95 % of control | dose: 200.0 mg/kg/injection, schedule: Q04DX002 (ip), vehicle: saline with Tween-80 95 % of control | dose: 400.0 mg/kg/injection, schedule: Q04DX002 (ip), vehicle: saline with Tween-80 92 % of control

CCCCCCCCCCCCCCCCOc1ccc(F)cc1F
inactive: dose: 100.0 mg/kg/injection, schedule: Q04DX002 (ip), vehicle: Klucel (hydroxypropylcellulose) (HPC) 118 % of control | dose: 200.0 mg/kg/injection, schedule: Q04DX002 (ip), vehicle: Klucel (hydroxypropylcellulose) (HPC) 96 % of control | dose: 400.0 mg/kg/injection, schedule: Q04DX002 (ip), vehicle: Klucel (hydroxypropylcellulose) (HPC) 96 % of control

O=C(OCC1OC(n2nc3ccnc(Cl)c3n2)C(OC(=O)c2ccccc2)C1OC(=O)c1ccccc1)c1ccccc1 (configuration not stated)
inactive: dose: 50.0 mg/kg/injection, schedule: Q01DX005 (ip), vehicle: saline 105 % of control | dose: 100.0 mg/kg/injection, schedule: Q01DX005 (ip), vehicle: saline 102 % of control | dose: 200.0 mg/kg/injection, schedule: Q01DX005 (ip), vehicle: saline 110 % of control

O=S1(=O)N2CN3CCN(C2)CN1C3
inactive: [6] 105 % of control | [7] 95 % of control | dose: 200.0 mg/kg/injection, schedule: Q01DX009 (ip), vehicle: Klucel (hydroxypropylcellulose) (HPC) 115 % of control | [8] 103 % of control | dose: 400.0 mg/kg/injection, schedule: Q01DX009 (ip), vehicle: Klucel (hydroxypropylcellulose) (HPC) 98 % of control | dose: 400.0 mg/kg/injection, schedule: Q04DX003 (ip), vehicle: Klucel (hydroxypropylcellulose) (HPC) 98 % of control

CC(C)N(C(C)C)S(C)(=O)=O
inactive: [12] 92 % of control

O=C(NNC(=O)C1C2CCCCC21)C1C2CCCCC21 (configuration not stated)
inactive: dose: 100.0 mg/kg/injection, schedule: Q04DX003 (ip), vehicle: acetone 105 % of control | dose: 200.0 mg/kg/injection, schedule: Q04DX003 (ip), vehicle: acetone 91 % of control | dose: 400.0 mg/kg/injection, schedule: Q04DX003 (ip), vehicle: acetone 97 % of control

COC(=O)c1ccccc1N=NNc1ccc2c(=O)c3ccccc3[nH]c2c1
inactive: [12] 95 % of control | [13] 86 % of control | dose: 400.0 mg/kg/injection, schedule: Q04DX003 (ip), vehicle: saline 86 % of control

COc1cccc(CCO)c1OC
inactive: dose: 50.0 mg/kg/injection, schedule: Q01DX001 (ip), vehicle: carboxymethylcellulose (CMC) 88 % of control | [9] 91 % of control | [10] 88 % of control | [11] 98 % of control

OCCN1CCN(c2ccccc2)CC1
inactive: dose: 50.0 mg/kg/injection, schedule: Q04DX003 (ip), vehicle: saline 104 % of control | [12] 113 % of control | [13] 102 % of control

Cc1ccccc1-c1nc2ncnc(N)c2[nH]1
inactive: dose: 31.8 mg/kg/injection, schedule: Q01DX001 (ip), vehicle: Klucel (hydroxypropylcellulose) (HPC) 104 % of control | dose: 62.5 mg/kg/injection, schedule: Q01DX001 (ip), vehicle: Klucel (hydroxypropylcellulose) (HPC) 109 % of control | dose: 125.0 mg/kg/injection, schedule: Q01DX001 (ip), vehicle: Klucel (hydroxypropylcellulose) (HPC) 101 % of control

NC(CCCC(N)C(=O)CCl)C(=O)O (configuration not stated)
inactive: dose: 25.0 mg/kg/injection, schedule: Q04DX002 (ip), vehicle: saline 114 % of control | dose: 50.0 mg/kg/injection, schedule: Q04DX002 (ip), vehicle: saline 104 % of control | dose: 100.0 mg/kg/injection, schedule: Q04DX002 (ip), vehicle: saline 107 % of control

Source: PubChem BioAssay AID248 (DTP/NCI, 2004)
